logP data for two compounds are collected here from ChEMBL document CHEMBL2029268, “A new high-yield synthetic route to PET CB1 radioligands [11C]OMAR and its analogs” (Bioorg Med Chem Lett, 2012).

Structures are written as SMILES.

This data set in a line: Octanol-water distribution coefficient, log P of the compound by HPLC analysis. The class given is physicochemical.

For the compound `[11CH3]Oc1ccc(-c2c(C#N)c(C(=O)NN3CCCCC3)nn2-c2ccccc2Br)cc1`, the log partition coefficient (logP) amounted to 2.29.
Next, `[11CH3]Oc1ccc(-c2c(C#N)c(C(=O)NN3CCCC3)nn2-c2ccccc2Br)cc1`: 2.03.

Broadly, the logP is the decadic logarithm of the partition coefficient of the neutral form, usually between octanol and water. A high value points to higher lipophilicity.
